Data as given in PMC9848351, “Discovery of new pyridine-quinoline hybrids as competitive and non-competitive PIM-1 kinase inhibitors with apoptosis induction and caspase 3/7 activation capabilities” (Journal of Enzyme Inhibition and Medicinal Chemistry, 2023).

Legend:
[1] = tested on: normal human lung fibroblast Wi-38 cell line; assay: MTT cytotoxicity on normal cells; format: cell-based; details: for EC50 / IC50: Homo sapiens; for EC50 / Wi-38 EC100: Wi-38, 72 h, MTT, mean ± SEM; for EC50: 50% cell viability; for Wi-38 EC100: safe dose, 100% cell viability; for IC50: Wi-38, MTT, read-out: IC50 on human lung fibroblasts (Wi-38)
In short: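 Wi-38 fibroblasts in DMEM with 10% FBS were seeded at 5x10^3 cells/well, left 24 h to attach, then exposed to serial compound concentrations for 72 h at 37 °C, 5% CO2. MTT was added for 3 h, formazan dissolved in DMSO and absorbance read at 570 nm. IC50 and EC100 (safe dose) were estimated from the concentration series.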

Caco-2 = assay: Flow cytometric annexin V/PI analysis of apoptosis, Caco-2; format: cell-based; details: IC50 of compound, 72 h, mean ± SEM
Method: (§1) The apoptosis-dependent […] was determined by quantification of annexin-stained apoptotic cells using the FITC signal detector (FL1) against the phycoerythrin emission signal detector (FL2) (Supplementary Page S55). […]
MTT method was used for assaying cell viability 25. Twenty microliters of 5 mg/ml MTT (Sigma, USA) was added to each well and the plate was incubated at 37 °C for 3 h. Then MTT solution was removed, 100 µl DMSO was used and the absorbance of each well was measured with a microplate reader ( BMG LabTech, […]
Germany) at 570 nm. […]
(§2) Graphpad Instat software.
(§3) Determination of the anticancer activity
Anticancer effect of the above-mentioned compounds was evaluated using four human […]
cancer cell lines. […]
All cancer cells (5x10^3 cells/well) were seeded in sterile
96-well plates. After 24h, serial concentrations of the tested compounds and Dox were incubated with four cancer cell lines for 72 h at 37 °C in 5% CO2 incubator. MTT method was done as described above. The Graphpad Instat software was used for calculating the half maximal inhibitory concentration (IC50) values. […]
(§4) Flow cytometric analysis of apoptosis
(§5) Caco-2, PC-3 and NFS-60 cell lines. After trypsinization, the untreated and treated cells were incubated with annexin V/PI for 15 min. Then cells were fixed and incubated with streptavidin-fluorescein (5 µg/mL) for 15 min. The apoptosis-dependent anticancer effect was determined by quantification of annexin-stained apoptotic cells using the FITC signal detector (FL1) against the phycoerythrin emission signal detector (FL2). […]

[2] = tested on: liver cancer cell line (HepG-2); assay: MTT anticancer activity, HepG-2; format: cell-based, human; details: for IC50: Homo sapiens, HepG2, HepG-2, 72 h, MTT, mean ± SEM; for activity against HepG-2 compared to the reference: fold versus doxorubicin IC50
In short: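 Cells seeded at 5x10^3/well (Caco-2 in DMEM, others in RPMI-1640, 10% FBS) and exposed to serial compound concentrations for 72 h at 37 °C, 5% CO2, starting 24 h after seeding. MTT (3 h, 37 °C) read at 570 nm after DMSO solubilisation; IC50 calculated from viability.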

HepG-2 = assay: Flow cytometric annexin V/PI analysis of apoptosis, HepG-2; format: cell-based, human; details: IC50 of compound, 72 h, mean ± SEM
NFS-60 = assay: Flow cytometric annexin V/PI analysis of apoptosis, NFS-60; format: cell-based, human; details: IC50 of compound, 72 h, mean ± SEM
Method: as §1
MTT method was used for assaying cell viability 25. Twenty microliters of 5 mg/ml MTT (Sigma, USA) was added to each well and the plate was incubated at […]
37 °C for 3 h. […]
as §2, §3
Anticancer effect of the above-mentioned compounds was evaluated using four human cancer cell lines. Colon cancer cells (Caco-2) were maintained in DMEM (Lonza, USA) containing 10% FBS while myeloid leukemia cell line (NFS-60), liver cancer cell line (HepG-2) and prostate cancer cell line (PC-3) were cultured in RPMI-1640 (Lonza, USA) supplemented with 10% FBS. All cancer cells (5x10^3 cells/well) were seeded in sterile 96-well plates. After 24h, serial concentrations of the tested compounds and Dox were incubated with four cancer cell lines for 72 h at 37 °C in 5% CO2 incubator. MTT method was done as described above. The Graphpad Instat software was used for calculating the half maximal inhibitory concentration (IC50) values. […]
as §4, §5

PIM-1 kinase = PIM-1 kinase (Homo sapiens, UniProt P11309); assay: Mechanism of PIM-1 kinase inhibition, Lineweaver–Burk double-reciprocal plot; format: biochemical; parameters: purchased Promega Corporation #V4032; details: for Vmax compared with control: Y-intercept
PIM-1 kinase, sequence (P11309 whole entry): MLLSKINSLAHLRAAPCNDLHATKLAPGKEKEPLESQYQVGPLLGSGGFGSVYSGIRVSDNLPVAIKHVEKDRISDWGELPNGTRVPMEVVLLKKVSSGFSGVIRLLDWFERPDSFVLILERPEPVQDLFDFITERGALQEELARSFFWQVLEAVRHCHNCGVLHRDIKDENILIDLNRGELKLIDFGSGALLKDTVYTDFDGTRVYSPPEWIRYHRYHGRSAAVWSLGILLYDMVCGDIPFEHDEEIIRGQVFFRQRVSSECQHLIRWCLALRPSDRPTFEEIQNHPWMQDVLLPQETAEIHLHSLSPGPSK

PIM-2 kinase = PIM-2 kinase (Homo sapiens, UniProt Q9P1W9); assay: PIM-2 kinase inhibitory activity (Promega kinase assay kit)
PIM-2 kinase, sequence (Q9P1W9 whole entry): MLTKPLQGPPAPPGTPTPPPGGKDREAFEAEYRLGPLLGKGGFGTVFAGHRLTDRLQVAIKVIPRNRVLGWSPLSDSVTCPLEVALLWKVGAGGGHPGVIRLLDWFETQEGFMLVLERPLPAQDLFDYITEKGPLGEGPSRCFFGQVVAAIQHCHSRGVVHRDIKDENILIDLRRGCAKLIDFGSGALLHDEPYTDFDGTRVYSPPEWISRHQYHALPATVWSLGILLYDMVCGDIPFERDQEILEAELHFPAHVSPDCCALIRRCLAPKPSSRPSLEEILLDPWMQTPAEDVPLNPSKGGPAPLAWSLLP
Excerpt: PIM-1 and PIM-2 kinase inhibitory activity
PIM-1 and PIM-2 kinase utilizing PIM-1 and PIM-2 Kinase Assay Kit – Promega Corporation catalog #V4032, following the manufacturer’s instructions 26

Row | IC50 [2] [nM] | mechanism of PIM-1 kinase inhibition (PIM-1 kinase) | Vmax compared with control (PIM-1 kinase) | IC50 (PIM-2 kinase) [nM] | SMILES | EC50 [1] [nM] | Wi-38 EC100 [1] [µM] | total percentage of the apoptotic cell population, Caco-2 (Caco-2) [%] | activity against HepG-2 compared to the reference [2] | total percentage of the apoptotic cell population, HepG-2 (HepG-2) [%] | total percentage of the apoptotic cell population, NFS-60 (NFS-60) [%] | IC50 [1] [nM]
1 | 7.6 ± 0.1 | competitive inhibitors | the same Vmax in comparison with control | 1660 | COc1ccc2nc(N3CCOCC3)c(-c3cc(-c4cccc(O)c4)[nH]c(=O)c3C#N)cc2c1 [5c, 6-(3-Hydroxyphenyl)-4-(6-methoxy-2-morpholin-4-yl-quinolin-3-yl)-2-oxo-1,2-dihydropyridine-3-carbonitrile] | 717 ± 2 | 0.361 ± 0.014 | 33.89 ± 0.175 |  | 54.14 ± 0.42 | 51.53 ± 0.09 | > 99
2 | 3.77 ± 0.1 |  |  |  | COc1ccc2[nH]c(=O)c(-c3cc(-c4cccc(O)c4)[nH]c(=O)c3C#N)cc2c1 [13c, 6-(3-Hydroxyphenyl)-4-(6-methoxy-2-oxo-1,2-dihydroquinolin-3-yl)-2-oxo-1,2-dihydropyridine-3-carbonitrile] | 34.8 ± 3 | 0.0242 ± 0.001 | 51.17 ± 0.33 | thirteen-fold high | 66.83 ± 1.32 | 58.83 ± 0.36 | 
3 | 12.7 | competitive inhibitors | the same Vmax in comparison with control |  | N#Cc1c(-c2cc3ccccc3[nH]c2=O)cc(-c2cccc(O)c2)nc1S [14a, 6-(3-Hydroxyphenyl)-2-mercapto-4-(2-oxo-1,2-dihydroquinolin-3-yl)pyridine-3-carbonitrile] | 299 ± 4 | 0.134 ± 0.003 | 42.17 ± 0.82 |  | 42.155 ± 0.16 | 42.005 ± 0.32 | 
4 | 5.28 ± 0.1 | competitive inhibitors | the same Vmax in comparison with control | 670 | N#Cc1c(-c2cc3cc(Cl)ccc3nc2N2CCOCC2)cc(-c2cccc(O)c2)[nH]c1=O [5b, 4-(6-Chloro-2-morpholin-4-yl-quinolin-3-yl)-6-(3-hydroxyphenyl)-2-oxo-1,2-dihydropyridine-3-carbonitrile] | 171 ± 2 | 0.048 ± 0.0001 | 44.045 ± 0.185 |  | 58.9 ± 0.88 | 54.2 ± 0.47 | > 99

Row | SMILES | IC50 [2] [nM] | mechanism of PIM-1 kinase inhibition (PIM-1 kinase) | Vmax compared with control (PIM-1 kinase) | IC50 (PIM-2 kinase) [nM] | EC50 [1] [nM] | Wi-38 EC100 [1] [µM] | total percentage of the apoptotic cell population, Caco-2 (Caco-2) [%] | activity against HepG-2 compared to the reference [2] | total percentage of the apoptotic cell population, HepG-2 (HepG-2) [%] | total percentage of the apoptotic cell population, NFS-60 (NFS-60) [%] | IC50 [1] [nM]
5 | N#Cc1c(-c2cc3ccccc3[nH]c2=O)cc(-c2cccc(O)c2)[nH]c1=O [13a, 6-(3-Hydroxyphenyl)-2-oxo-4-(2-oxo-1,2-dihydroquinolin-3-yl)-1,2-dihydropyridine-3-carbonitrile] | 2.38 | both competitive and non-competitive inhibitor | reduced in Vmax value |  | 25.5 ± 4 | 0.0145 ± 0.0001 | 58.28 ± 0.26 | twenty-one-fold more active | 70.59 ± 1.07 | 59.23 ± 0.04 | 
